Results taken from US5252469A, “Process for producing a transglutaminase derived from streptomyces” (Amano Pharmaceutical Co., Ltd., priority 1990, dated 1993).
Like-named read-outs stand apart in the source and are kept apart here. Peptide text beside a SMILES is read from it. * marks the point of attachment. Cbz = O=C(OCc1ccccc1)*

How the values were obtained:
Assay type in all cases: biochemical
[1] = tested on: Enzyme No. 83 (transglutaminase of Streptomyces sp No. 83); assay: Influence of metal ions on transglutaminase activity; conditions: for Activity of Enzyme No. 83 with metal ion (%): metal ion 1 mM in activity measurement system, None = 100, 10 min; for Effect of metal ion on activity of Enzyme No. 83 (in words): 1 mM, text says all BTGases
Experimental: (§1) Measurement of the activity of BTGase is carried out by performing a reaction using benzyloxycarbonyl-L-glutaminyl glycine and hydroxylamine as substrates in the absence of Ca^2+, forming an iron complex with the resulting hydroxamic acid in the presence of trichloroacetic acid, measuring absorption at 525 nm and determining the amount of hydroxamic acid by a calibration curve to calculate the activity. The BTGase activity is measured by the method described below, unless otherwise indicated.
(§2) To 0.05 ml of an enzyme solution is added 0.5 ml of Reagent A and they are mixed with each other. After reacting at 37° C. for 10 minutes, Reagent B is added thereto to discontinue the reaction and form an Fe complex. Thereafter, absorbance is measured at 525 nm. […] Separately, a calibration curve is prepared using L-glutamic acid γ-monohydroxamic acid instead of the enzyme solution, and the amount of hydroxamic acid produced is determined by the difference in absorbance described above. An enzyme activity which produces 1 μmol of hydroxamic acid per 1 minute is defined as 1 unit.

[2] = tested on: Enzyme No. 466 (transglutaminase of Streptomyces lavendulae No. 466); assay: as above; conditions: for Activity of Enzyme No. 466 with metal ion (%): metal ion 1 mM in activity measurement system, None = 100, 10 min; for Effect of metal ion on activity of Enzyme No. 466 (in words): 1 mM, text says all BTGases
Experimental: as §1, §2

[3] = tested on: Enzyme No. 83 (transglutaminase of Streptomyces sp No. 83); assay: Substrate specificity: reaction of synthetic substrates with hydroxylamine; conditions: for Substrate specificity, Enzyme No. 83 (reactivity of substrate with hydroxylamine): Table 6, synthetic substrate 5 mM; for Substrate specificity, Enzyme No. 83 (reactivity of substrate with hydroxylamine) / Substrate specificity (%), Enzyme No. 83: CBZ-Gln-Gly = 100; for Substrate specificity (%), Enzyme No. 83: Table 9; for Reactivity of synthetic substrate with Enzyme No. 83 (in words): substrate 5 mM, text says BTGase (both enzymes)
Experimental: as §1
(§3) To 0.05 ml of an enzyme solution is added 0.5 ml of Reagent A and they are mixed with each other. After reacting at 37° C. for 10 minutes, Reagent B is added thereto to discontinue the reaction and form an Fe complex. Thereafter, absorbance is measured at 525 nm. As a control, absorbance is measured after reacting a previously thermally inactivated enzyme solution in a similar manner and a difference in absorbance between the control and the enzyme solution is measured. Separately, a calibration curve is prepared using L-glutamic acid γ-monohydroxamic acid instead of the enzyme solution, and the amount of hydroxamic acid produced is determined by the difference in absorbance described above. An enzyme activity which produces 1 μmol of hydroxamic acid per 1 minute is defined as 1 unit.
(§4) Using each BTGase, reactions of various synthetic substrates with hydroxylamine were examined. […] In this case, the concentration of various synthetic substrates is 5 mM. In the table, CBZ, Gln, Gly and Asn are abbreviations for benzyloxycarbonyl group, glutaminyl group, glycyl group and asparaginyl group, respectively.

[4] = tested on: Enzyme No. 466 (transglutaminase of Streptomyces lavendulae No. 466); assay: as above; conditions: for Substrate specificity, Enzyme No. 466 (reactivity of substrate with hydroxylamine): Table 6, synthetic substrate 5 mM; for Substrate specificity, Enzyme No. 466 (reactivity of substrate with hydroxylamine) / Substrate specificity (%), Enzyme No. 466: CBZ-Gln-Gly = 100; for Substrate specificity (%), Enzyme No. 466: Table 9; for Reactivity of synthetic substrate with Enzyme No. 466 (in words): substrate 5 mM, text says BTGase (both enzymes)
Experimental: as §1, §3, §4

[5] = target: T1, MTGase (transglutaminase of guinea pig liver) (UniProt P08587); assay: as above; conditions: Table 9; CBZ-Gln-Gly = 100
T1 construct: The guinea pig liver-derived transglutaminase was prepared by the method described in Connellan et al; from tissue; host or cells: guinea pig liver
T1 sequence (P08587 2-690 limits assumed): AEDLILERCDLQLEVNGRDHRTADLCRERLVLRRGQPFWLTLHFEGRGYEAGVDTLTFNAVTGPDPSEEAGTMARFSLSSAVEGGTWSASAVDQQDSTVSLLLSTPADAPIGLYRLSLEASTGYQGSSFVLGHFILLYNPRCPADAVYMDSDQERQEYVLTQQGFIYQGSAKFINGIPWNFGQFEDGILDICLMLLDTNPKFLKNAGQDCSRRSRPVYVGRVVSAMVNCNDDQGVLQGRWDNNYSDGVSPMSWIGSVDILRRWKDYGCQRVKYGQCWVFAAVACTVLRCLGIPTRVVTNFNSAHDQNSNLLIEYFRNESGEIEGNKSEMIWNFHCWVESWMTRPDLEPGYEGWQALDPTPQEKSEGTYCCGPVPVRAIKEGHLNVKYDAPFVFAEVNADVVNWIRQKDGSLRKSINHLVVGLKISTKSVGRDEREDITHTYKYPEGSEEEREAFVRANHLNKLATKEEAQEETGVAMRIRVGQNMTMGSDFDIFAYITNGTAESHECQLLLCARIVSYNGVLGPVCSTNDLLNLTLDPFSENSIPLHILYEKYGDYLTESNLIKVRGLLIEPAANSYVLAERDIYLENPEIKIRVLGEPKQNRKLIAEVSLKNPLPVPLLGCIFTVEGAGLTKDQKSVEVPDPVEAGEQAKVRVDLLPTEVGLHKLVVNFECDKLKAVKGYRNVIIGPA
Experimental: as §1, §3, §4
Next, properties of BTGases are compared to those of guinea pig liver-derived transglutaminase. The guinea pig liver-derived transglutaminase was prepared by the method described in Connellan et al., Journal of Biological Chemistry, Vol. 246, No. 4, pp. 1093-1098 (1971). As will be apparent from Tables 9 and 10, various differences in enzymological properties are noted between transglutaminase of guinea pig liver (hereafter, referred to as MTGase) which has been mainly investigated heretofore and BTGases derived from the genus Streptomyces: in particular, differences are noted in temperature stability, molecular weight, isoelectric point and substrate specificity. Further, a difference is noted in that the BTGases of the present invention act in the presence and absence of Ca^2+. Therefore, the respective enzymes of the present invention are different from MTGase in their properties.

[6] = target: T1, MTGase (transglutaminase of guinea pig liver); assay: Influence of Ca2+ on activity
Experimental: as §1, §3
Next, properties of BTGases are compared to those of guinea pig liver-derived transglutaminase. […]

[7] = tested on: Enzyme No. 83 (transglutaminase of Streptomyces sp No. 83)
Experimental: as §1, §2
(§5) Each inhibitor was added in a concentration of 1 mM.

[8] = tested on: Enzyme No. 466 (transglutaminase of Streptomyces lavendulae No. 466)
Experimental: as §1, §2, §5

[9] = 1 mM, 25° C. for 30 minutes, text says all BTGases
[10] = inhibitor 1 mM, 25° C. for 30 minutes, None = 100

| SMILES | Activity of Enzyme No. 83 with metal ion (%) [1] [%] | Activity of Enzyme No. 466 with metal ion (%) [2] [%] | Substrate specificity, Enzyme No. 83 (reactivity of substrate with hydroxylamine) [3] | Substrate specificity (%), Enzyme No. 83 [3] [%] | Substrate specificity, Enzyme No. 466 (reactivity of substrate with hydroxylamine) [4] | Substrate specificity (%), Enzyme No. 466 [4] [%] | Substrate specificity (%), MTGase [5] [%] | other results |
| --- | --- | --- | --- | --- | --- | --- | --- | --- |
| [Ba+2].[Cl-].[Cl-] [BaCl2] | 100 | 100 |  |  |  |  |  |  |
| NC(=O)C[C@H](NC(=O)OCc1ccccc1)C(=O)NCC(=O)O [CBZ--Asn--Gly, benzyloxycarbonylasparaginyl glycine] (Cbz-Asn-Gly-OH) |  |  | 0 | 0 | 0 | 0 | 0 | Reactivity of synthetic substrate with Enzyme No. 83 (in words) [3]: No BTGase reacts; Reactivity of synthetic substrate with Enzyme No. 466 (in words) [4]: No BTGase reacts |
| NC(=O)CC[C@H](NC(=O)OCc1ccccc1)C(=O)O [CBZ--Gln, benzyloxycarbonyl glutamine] |  |  | 0 | 0 | 0 | 0 | 0 | Reactivity of synthetic substrate with Enzyme No. 83 (in words) [3]: No BTGase reacts; Reactivity of synthetic substrate with Enzyme No. 466 (in words) [4]: No BTGase reacts |
| NC(=O)CC[C@H](NC(=O)OCc1ccccc1)C(=O)N[C@@H](CCC(N)=O)C(=O)NCC(=O)O [CBZ--Gln--Gln--Gly] (Cbz-Gln-Gln-Gly-OH) |  |  | 49 | 49 | 35 | 35 | 288 |  |
| NC(=O)CC[C@H](NC(=O)OCc1ccccc1)C(=O)NCC(=O)O [CBZ--Gln--Gly, benzyloxycarbonylglutaminyl glycine] (Cbz-Gln-Gly-OH) |  |  | 100 | 100 | 100 | 100 | 100 | Reactivity of synthetic substrate with Enzyme No. 83 (in words) [3]: highest; Reactivity of synthetic substrate with Enzyme No. 466 (in words) [4]: highest |
| CCOC(=O)CNC(=O)[C@H](CCC(N)=O)NC(=O)OCc1ccccc1 [CBZ--Gln--Gly--OEt] (Cbz-Gln-Gly-OEt) |  |  | 61 | 61 | 65 | 65 | 122 |  |
| NC(=O)CC[C@H](NC(=O)CNC(=O)OCc1ccccc1)C(=O)NCC(=O)NCC(=O)O [CBZ--Gly--Gln--Gly--Gly] (Cbz-GQGG-OH) |  |  | 10 | 10 | 18 | 18 | 126 |  |
| [Ca+2].[Cl-].[Cl-] [CaCl2] |  |  |  |  |  |  |  | Activity of MTGase (%) ([6]; 1 mM CaCl2): 39%; Activity of MTGase (%) ([6]; 5 mM CaCl2): 100% |
| [Cl-].[Cl-].[Co+2] [CoCl2] | 100 | 98 |  |  |  |  |  |  |
| [Cl][Cu][Cl] [CuCl2] | 89 | 90 |  |  |  |  |  | Effect of metal ion on activity of Enzyme No. 83 (in words) [1]: inhibited; Effect of metal ion on activity of Enzyme No. 466 (in words) [2]: inhibited |
| O=C(O)CN(CCN(CC(=O)O)CC(=O)O)CC(=O)O [EDTA] |  |  |  |  |  |  |  | Activity of Enzyme No. 83 with inhibitor [7]: 103; Activity of Enzyme No. 466 with inhibitor [8]: 108 |
| [Cl][Fe]([Cl])[Cl] [FeCl3] | 93 | 97 |  |  |  |  |  |  |
| NCC(=O)N[C@@H](CCC(N)=O)C(=O)NCC(=O)O [Gly--Gln--Gly, glycylglutaminyl glycine] (H-Gly-Gln-Gly-OH) |  |  | 0 | 0 | 0 | 0 | 0 | Reactivity of synthetic substrate with Enzyme No. 83 (in words) [3]: No BTGase reacts; Reactivity of synthetic substrate with Enzyme No. 466 (in words) [4]: No BTGase reacts |
| [Cl-].[K+] [KCl] | 104 |  |  |  |  |  |  |  |
| O=C(O)CI [Monoiodoacetic acid, monoiodoacetic acid] |  |  |  |  |  |  |  | Activity of Enzyme No. 83 with inhibitor [7]: 92; Effect of inhibitor on activity of Enzyme No. 83 (in words) [7]: inhibited; Activity of Enzyme No. 466 with inhibitor [8]: 87; Effect of inhibitor on activity of Enzyme No. 466 (in words) [8]: inhibited |
| CCN1C(=O)C=CC1=O [NEM, N-ethylmaleimide] |  |  |  |  |  |  |  | Effect of inhibitor on activity of Enzyme No. 83 (in words) [7, 9]: inhibited; Activity of Enzyme No. 83 with inhibitor [7, 10]: 10; Effect of inhibitor on activity of Enzyme No. 466 (in words) [8, 9]: inhibited; Activity of Enzyme No. 466 with inhibitor [8, 10]: 5 |
| [Cl-].[Na+] [NaCl] | 102 | 98 |  |  |  |  |  |  |
| O=C(O)c1cc[c]([Hg][Cl])cc1 [PCMB, p-chloromercury benzoic acid] |  |  |  |  |  |  |  | Effect of inhibitor on activity of Enzyme No. 83 (in words) [7, 9]: inhibited; Activity of Enzyme No. 83 with inhibitor [7, 10]: 86; Effect of inhibitor on activity of Enzyme No. 466 (in words) [8, 9]: inhibited; Activity of Enzyme No. 466 with inhibitor [8, 10]: 28 |
| O=S(=O)(F)Cc1ccccc1 [PMSF, phenylmethylsulfonyl fluoride] |  |  |  |  |  |  |  | Activity of Enzyme No. 83 with inhibitor [7, 10]: 101; Activity of Enzyme No. 466 with inhibitor [8, 10]: 103 |
| [Cl][Pb][Cl] [PbCl2] | 59 | 32 |  |  |  |  |  | Effect of metal ion on activity of Enzyme No. 83 (in words) [1]: inhibited; Effect of metal ion on activity of Enzyme No. 466 (in words) [2]: inhibited |
| [Cl-].[Cl-].[Sr+2] [SrCl2] | 100 | 97 |  |  |  |  |  |  |
| [Cl-].[Cl-].[Zn+2] [ZnCl2] | 36 | 10 |  |  |  |  |  | Effect of metal ion on activity of Enzyme No. 83 (in words) [1]: inhibited; Effect of metal ion on activity of Enzyme No. 466 (in words) [2]: inhibited |
